Here are results for 21 compounds from BindingDB's records for doi:10.7270/Q2K072QS (Burnham Center For Chemical Genomics, 2010).

In the first test the target is G-protein coupled receptor 35 (Homo sapiens, UniProt Q9HC97). Description: GPR35 antagonists by imaging, SAR follow-up, selectivity assay for GPR55 agonist project, high-content imaging (AID 2338).
G-protein coupled receptor 35, sequence (Q9HC97 whole entry): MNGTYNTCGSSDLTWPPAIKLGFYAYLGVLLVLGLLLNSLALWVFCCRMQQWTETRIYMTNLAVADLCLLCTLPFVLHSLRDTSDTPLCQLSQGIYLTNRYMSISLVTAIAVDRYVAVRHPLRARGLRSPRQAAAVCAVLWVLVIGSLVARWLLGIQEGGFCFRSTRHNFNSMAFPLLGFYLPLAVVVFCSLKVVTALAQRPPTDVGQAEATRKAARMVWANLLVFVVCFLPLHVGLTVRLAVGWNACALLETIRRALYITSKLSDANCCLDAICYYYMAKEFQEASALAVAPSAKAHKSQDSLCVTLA
Conditions: not given
Turning to `O=C(CSc1nc2ccccc2s1)N1c2ccccc2Sc2ccc(Cl)cc21` [SMR000198068], the half-maximal inhibitory concentration (IC50) (as a rule, the point on the concentration scale where inhibition reaches its midpoint) was more than 32 µM.

`COc1ccc(-c2csc(NC(=O)CSc3nnc4c(C)cc5ccccc5n34)n2)cc1` [N-[4-(4-methoxyphenyl)-1,3-thiazol-2-yl]-2-[(4-methyl-[1,2,4]triazolo[4,3-a]quinolin-1-yl)sulfanyl]ethanamide]: the IC50 is more than 32 µM.

`CC(Sc1nc2cc(Cl)ccc2s1)C(=O)Nc1cccc(S(=O)(=O)N2CCOCC2)c1` (stereo unspecified) [SMR000243093] gave an IC50 of more than 32 µM.

The compound `COc1ccc2c(c1)cc(C)c1nnc(SCC(=O)N(C)c3nc(-c4ccccc4)cs3)n12` [MLS-0102574.0001] had an IC50 of more than 32 µM.

With `COc1ccc(S(=O)(=O)N2CCOCC2)cc1NC(=O)c1cc2c(s1)CCCC2` [N-[2-methoxy-5-(4-morpholinylsulfonyl)phenyl]-4,5,6,7-tetrahydro-1-benzothiophene-2-carboxamide], the IC50 is more than 32 µM.

Consider `O=C(CSc1nc2ccccc2s1)N1c2ccccc2Sc2ccc(C(F)(F)F)cc21`, for which the IC50 is more than 32 µM.

Take `C/C(C=NNC(=O)c1nnn(-c2nonc2N)c1CN1CCC(C)CC1)=C/c1ccccc1`: the IC50 was more than 32 µM.

As to `CC(C)NS(=O)(=O)c1ccc(NC(=S)NC(=O)c2ccc(-c3ccccc3)cc2)cc1` [SMR000200853], the half-maximal inhibitory concentration (IC50) was more than 32 µM.

With `CC(C)Oc1ccc(S(=O)(=O)N2CCOCC2)cc1NC(=O)c1ccc(N2CCCC2=O)cc1` [N-(5-morpholin-4-ylsulfonyl-2-propan-2-yloxy-phenyl)-4-(2-oxidanylidenepyrrolidin-1-yl)benzamide], the concentration for half-maximal inhibition (IC50) was more than 32 µM.

As to `COc1cc2c(cc1NC(=O)C(C)Sc1ccc(NC(C)=O)cc1)oc1ccccc12` (stereo unspecified) [2-[(4-acetamidophenyl)thio]-N-(2-methoxy-3-dibenzofuranyl)propanamide], the IC50 was more than 32 µM.

In turn, `Cc1occc1C(=O)Nc1ccc(OCc2ccccc2)cc1` [2-methyl-N-(4-phenylmethoxyphenyl)furan-3-carboxamide] gave an IC50 of more than 32 µM.

In turn, `CC(C)=CC(=O)Nc1ccc(OCc2ccccc2)cc1` [3-methyl-N-(4-phenylmethoxyphenyl)but-2-enamide] yielded an IC50 of more than 32 µM.

In the case of `COc1cc2c(cc1NC(=O)CSc1ccccc1)oc1ccccc12` [MLS000579482], the IC50 was more than 32 µM.

Take `CCCN(CCC)Cc1c(C(=O)NN=C/C(C)=C\c2ccccc2)nnn1-c1nonc1N` [1-(4-azanyl-1,2,5-oxadiazol-3-yl)-5-[(dipropylamino)methyl]-N-[[(Z)-2-methyl-3-phenyl-prop-2-enylidene]amino]-1,2,3-triazole-4-carboxamide]: the half-inhibitory concentration (IC50) was more than 32 µM.

Regarding `COc1ccc2cc(C)c3nnc(SCC(=O)Nc4nc(-c5ccc(F)cc5)cs4)n3c2c1` [N-[4-(4-fluorophenyl)-1,3-thiazol-2-yl]-2-[(8-methoxy-4-methyl-[1,2,4]triazolo[4,3-a]quinolin-1-yl)sulfanyl]ethanamide], the 50% inhibitory concentration (IC50) was more than 32 µM.

The compound `C=CCN(CC=C)S(=O)(=O)c1ccc(NC(=S)NC(=O)c2ccc(-c3ccccc3)cc2)cc1` showed a concentration for half-maximal inhibition (IC50) of more than 32 µM.

As for `Cc1cccc(N2CCN(C(=O)c3cc(S(=O)(=O)N(C)C)ccc3N3CCCC3)CC2)c1C`, the half-inhibitory concentration (IC50) was more than 32 µM.

Turning to `COc1ccccc1C=CC(=O)NC(=S)Nc1ccc(S(=O)(=O)N(C)c2ccccc2)cc1`, the IC50 is more than 32 µM.

In the case of `CCCN(CCC)Cc1c(C(=O)NN=Cc2c[nH]c3ccccc23)nnn1-c1nonc1N`, the half-inhibitory concentration (IC50) is more than 32 µM.

`CN(C)S(=O)(=O)c1ccc(N2CCCC2)c(C(=O)N2CCN(c3ccc([N+](=O)[O-])cc3)CC2)c1` [SMR000370611] came in with an IC50 of more than 32 µM.

Still in this test, the particulars now being: inactive by the depositor's call.
In turn, `CCCN(CCC)Cc1c(C(=O)NN=C/C(C)=C\c2ccco2)nnn1-c1nonc1N` [1-(4-azanyl-1,2,5-oxadiazol-3-yl)-5-[(dipropylamino)methyl]-N-[[(Z)-3-(furan-2-yl)-2-methyl-prop-2-enylidene]amino]-1,2,3-triazole-4-carboxamide] yielded an IC50 of 24.4 µM.
